`Cc1cccc(N2C=C(c3cc(C)nc(C)c3)SC2N)c1` (centres unmarked) [H 7-6, [5 (2,6 dimethyl-4-pyridyl)-3 (3 methylphenyl)-1,3 thiazol-2 yl]amine] gave a melting point of 214 to 216 °C.
Then `Cc1cc(C)cc(-c2nc(N)sc2-c2cc(C)nc(C)c2)c1` [H 7-7, [4 (3,5 dimethylphenyl)-5-(2,6 dimethyl-4 pyridyl)-1,3 thiazol-2 yl]amine], with 256 to 258 °C.
In the case of `Cc1cc(-c2sc(N)nc2-c2ccc(F)cc2)ccn1` [H 7-8, [4 (4 fluorophenyl)-5 (2-methyl-4 pyridyl)-1,3 thiazol-2 yl]amine], the melting point was 233 to 234 °C.
Then `Cc1cccc(-c2nc(-c3ccccc3Cl)sc2-c2ccnc(C)c2)c1` [H 14-1, 2 (2 chlorophenyl)-4 (3-methylphenyl)-5 (2 methyl-4 pyridyl)-1,3 thiazole], with 83 to 84 °C.
`Cc1cccc(-c2nc(-c3ccc(Cl)cc3)sc2-c2ccnc(C)c2)c1` [H 14-2, 2 (4 chlorophenyl)-4 (3-methylphenyl)-5 (2 methyl-4 pyridyl)-1,3 thiazole] yielded a melting point of 104 to 105 °C.
`Cc1cccc(-c2nc(-c3ccccc3F)sc2-c2ccnc(C)c2)c1` [H 14-3, 2 (2 fluorophenyl)-4 (3-methylphenyl)-5 (2 methyl-4 pyridyl)-1,3 thiazole] showed a melting point of 73 to 74 °C.
Next, `Cc1cccc(-c2nc(-c3ccc(F)cc3)sc2-c2ccnc(C)c2)c1` [H 14-4, 2 (4 fluorophenyl)-4 (3-methylphenyl)-5 (2 methyl-4 pyridyl)-1,3 thiazole]: 89 to 91 °C.
In turn, `Cc1cccc(-c2nc(-c3ccc(F)cc3F)sc2-c2ccnc(C)c2)c1` [H 14-5, 2 (2,4 difluorophenyl)-4-(3 methylphenyl)-5 (2 methyl-4 pyridyl)-1,3 thiazole] yielded a melting point of 90 to 91 °C.
In the case of `Cc1cccc(-c2nc(-c3ccccc3)sc2-c2ccnc(C)c2)c1` [H 14-6, 4 (3 methylphenyl)-5 (2-methyl-4 pyridyl)-2 phenyl-1,3 thiazole], the melting point is 79 to 80 °C.
The compound `Cc1cccc(-c2nc(Cc3ccccc3)sc2-c2ccnc(C)c2)c1` [H 14-7, 4 (3 methylphenyl)-5 (2-methyl-4 pyridyl)-2 (phenylmethyl)-1,3 thiazole] showed a melting point of 82 to 84 °C.
Then `Cc1cccc(-c2nc(CCc3ccccc3)sc2-c2ccnc(C)c2)c1` [H 14-8, 4 (3 methylphenyl)-5 (2-methyl-4 pyridyl)-2 (2 phenylethyl)-1,3 thiazole], with 64 to 65 °C; and `CCOC(=O)c1nc(-c2cccc(C)c2)c(-c2ccnc(C)c2)s1` [H 14-12, ethyl [4 (3-methylphenyl)-5 (2 methyl-4 pyridyl)-1,3 thiazol-2-yl]carboxylate], with 97 to 98 °C.
Then `Cc1cccc(-c2nc(N3CCN(C)CC3)sc2-c2ccnc(C)c2)c1` [H 14-13, 4 (3 methylphenyl)-2 (4-methylpiperazin-1 yl)-5 (2 methyl-4 pyridyl)-1,3 thiazole], with 115 to 116 °C; and `CSc1ccc(-c2nc(-c3cccc(C)c3)c(-c3ccnc(F)c3)s2)cc1` [H 15, 5-(2-fluoro-4-pyridyl)-4-(3-methylphenyl)-2-[4-(methylthio)phenyl]-1,3-thiazole], with 97 to 100 °C.
Next, `Cc1cccc(-c2nc(-c3ccc(F)cc3)sc2-c2ccnc(N)c2)c1` [H 18-1, 4 [2 (4 fluorophenyl)-4-(3 methylphenyl)-1,3 thiazol-5 yl]-2 pyridylamine]: 160 to 162 °C; `Cc1cccc(-c2nc(CC(F)(F)F)sc2-c2ccnc(N)c2)c1` [H 18-3, 4 [4 (3 methylphenyl)-2-(2,2,2 trifluoroethyl)-1,3 thiazol-5 yl]-2 pyridylamine]: 131 to 132 °C; `CCCc1nc(-c2cccc(C)c2)c(-c2ccnc(N)c2)s1` [H 18-4, 4 [4 (3 methylphenyl)-2-propyl-1,3 thiazol-5 yl]-2 pyridylamine]: 113 to 115 °C.
For `CCOC(=O)Cc1nc(-c2cccc(C)c2)c(-c2ccnc(N)c2)s1` [H 18-5, Ethyl [5 (2 amino-4-pyridyl)-4 (3 methylphenyl)-1,3 thiazol-2 yl]acetate], the melting point lay within 128 to 129 °C.
For the compound `CCc1nc(-c2cccc(Cl)c2)c(-c2ccnc(N)c2)s1` [H 20-1, 4 [2 ethyl-4 (3-chlorophenyl)-1,3 thiazol-5 yl]-2 pyridylamine], the melting point lay within 131 to 132 °C.
With `CCc1nc(-c2ccccc2)c(-c2ccnc(N)c2)s1` [H 20-2, 4 (2 ethyl-4 phenyl-1,3-thiazol-5 yl)-2 pyridylamine], the melting point is 158 to 159 °C.
Then `CCc1nc(-c2ccc(F)cc2)c(-c2ccnc(N)c2)s1` [H 20-3, 4 [2 ethyl-4 (4-fluorophenyl)-1,3 thiazol-5 yl]-2 pyridylamine], with 140 to 141 °C; and `CCc1nc(-c2cccc(C(F)(F)F)c2)c(-c2ccnc(N)c2)s1` [H 20-4, 4 [2 ethyl-4 [3-(trifluoromethyl)phenyl]-1,3 thiazol-5 yl]-2 pyridylamine], with 117 to 118 °C; and `CCc1nc(-c2ccc(SC)cc2)c(-c2ccnc(N)c2)s1` [H 20-5, 4 [2 ethyl-4 [4-(methylthio)phenyl]-1,3 thiazol-5 yl]-2 pyridylamine], with 119 to 120 °C.
Take `CCc1nc(-c2cccc(F)c2)c(-c2ccnc(N)c2)s1` [H 20-6, 4 [2 ethyl-4 (3-fluorophenyl)-1,3 thiazol-5 yl]-2 pyridylamine]: the melting point was in the range of 153 to 154 °C.
For the compound `CCc1nc(-c2ccc(Cl)cc2)c(-c2ccnc(N)c2)s1` [H 20-7, 4 [4 (4 chlorophenyl)-2-ethyl-1,3 thiazol-5 yl]-2 pyridylamine], the melting point is 136 to 137 °C.
Then `CCc1cccc(-c2nc(CC)sc2-c2ccnc(N)c2)c1` [H 20-8, 4 [2 ethyl-4 (3-ethylphenyl)-1,3 thiazol-5 yl]-2 pyridylamine], with 128 to 129 °C; and `CCc1nc(-c2ccc(F)c(C)c2)c(-c2ccnc(N)c2)s1` [H 20-9, 4 [2 ethyl-4 (4 fluoro-3-methylphenyl)-1,3 thiazol-5 yl]-2 pyridylamine], with 134 to 135 °C.
Next, `CCc1nc(-c2cccc(C(C)C)c2)c(-c2ccnc(N)c2)s1` [H 20-10, 4 [2 ethyl-4 [3 (1-methylethyl)phenyl]-1,3 thiazol-5 yl]-2 pyridylamine]: 80 to 81 °C; `CCCc1cccc(-c2nc(CC)sc2-c2ccnc(N)c2)c1` [H 20-11, 4 [2 ethyl-4 (3-propylphenyl)-1,3 thiazol-5 yl]-2 pyridylamine]: 72 to 74 °C; `CCc1nc(-c2cccs2)c(-c2ccnc(N)c2)s1` [H 20-12, 4 [2 ethyl-4 (2 thienyl)-1,3 thiazol-5 yl]-2 pyridylamine]: 159 to 160 °C.
Consider `Cc1cccc(-c2ncsc2-c2ccnc(N)c2)c1` [H 27-1, 4 [4 (3 methylphenyl)-1,3-thiazol-5 yl]-2 pyridylamine], for which the melting point is 91 to 92 °C.
As to `Cc1nc(-c2cccc(Cl)c2)c(-c2ccnc(N)c2)s1` [H 27-2, 4 [4 (3 chlorophenyl)-2-methyl-1,3 thiazol-5 yl]-2 pyridylamine], the melting point is 142 to 143 °C.

The record behind these values is US20050080113A1, “Medicinal compositions” (priority 2001, published 2005).
